The nature of data set [1]: excess molar enthalpy (molar enthalpy of mixing); xn = mol fraction of the nth substance listed. To be noted: 298.15 K, 101 kPa, Liquid.
The nature of data set [2]: refractive index (Na D-line) (dimensionless). Conditions: 298.15 K; 101.33 kPa; Liquid; Standard Abbe refractometry.
For data set [3] the following is noted: 298.15 K; 101.33 kPa; Liquid.

Numbers after ± are expanded uncertainties.

In the case of `CC(O)CO` (stereo not given) [1,2-propanediol] + CCCO, the excess molar enthalpy in data set [1] (x1 = 0.1008) is 0.0544 ± 0.00239 kcal/mol; in data set [1] (x1 = 0.201), 0.087 ± 0.00359 kcal/mol; in data set [1] (x1 = 0.3036), 0.105 ± 0.0043 kcal/mol; in data set [1] (x1 = 0.4025), 0.111 ± 0.0043 kcal/mol; in data set [1] (x1 = 0.5001), 0.107 ± 0.0043 kcal/mol; in data set [1] (x1 = 0.5049), 0.109 ± 0.0043 kcal/mol. Moreover, the excess molar enthalpy in data set [1] (x1 = 0.6007) turned out to be 0.0973 ± 0.00406 kcal/mol; in data set [1] (x1 = 0.7015) it was 0.0808 ± 0.00335 kcal/mol; in data set [1] (x1 = 0.8011), 0.0589 ± 0.00263 kcal/mol; in data set [1] (x1 = 0.9009) it was 0.0316 ± 0.00172 kcal/mol.
As a reminder, the refractive index is a measure of how strongly the sample bends light. By mass density is commonly meant the mass of a sample divided by its volume. In the case of `CC(O)CO` (stereo not given) [1,2-propanediol], the refractive index in data set [2] came to 1.4323 ± 0.0005. In addition, the mass density in data set [3] worked out at 1032.61 ± 0.31 kg/m3.
As for `CC(O)CO` (stereo not given) [1,2-propanediol] + CCCCO, the excess molar enthalpy in data set [1] (x1 = 0.1007) is 0.0737 ± 0.00311 kcal/mol; in data set [1] (x1 = 0.1971), 0.114 ± 0.00454 kcal/mol; in data set [1] (x1 = 0.2945), 0.135 ± 0.00526 kcal/mol; in data set [1] (x1 = 0.3853) it was 0.143 ± 0.0055 kcal/mol; in data set [1] (x1 = 0.4758) it was 0.142 ± 0.0055 kcal/mol; in data set [1] (x1 = 0.5644), 0.133 ± 0.00526 kcal/mol. The excess molar enthalpy in data set [1] (x1 = 0.6047) came out at 0.124 ± 0.00478 kcal/mol; in data set [1] (x1 = 0.7062) it was 0.104 ± 0.00406 kcal/mol; in data set [1] (x1 = 0.8047), 0.0773 ± 0.00335 kcal/mol; in data set [1] (x1 = 0.9026), 0.0429 ± 0.00208 kcal/mol.
On to `CCCCCCO` [hexan-1-ol], for which, in data set [2], the refractive index stood at 1.4166 ± 0.0006. In data set [3], the mass density was determined as 815.2 ± 1.9 kg/m3.
`CC(O)CO` (stereo not given) [1,2-propanediol] + CCCCCCO: the excess molar enthalpy in data set [1] (x1 = 0.0905) was 0.0833 ± 0.00359 kcal/mol; in data set [1] (x1 = 0.1929), 0.138 ± 0.00526 kcal/mol; in data set [1] (x1 = 0.2872) it was 0.165 ± 0.00621 kcal/mol; in data set [1] (x1 = 0.3828), 0.178 ± 0.00669 kcal/mol; in data set [1] (x1 = 0.4778), 0.181 ± 0.00693 kcal/mol; in data set [1] (x1 = 0.5711) it was 0.173 ± 0.00645 kcal/mol. The excess molar enthalpy in data set [1] (x1 = 0.6718) is 0.157 ± 0.00598 kcal/mol; in data set [1] (x1 = 0.7021), 0.146 ± 0.00574 kcal/mol; in data set [1] (x1 = 0.7996) it was 0.116 ± 0.00454 kcal/mol; in data set [1] (x1 = 0.904), 0.0673 ± 0.00287 kcal/mol.
Take `CCCO` [propan-1-ol]: the refractive index in data set [2] worked out at 1.3833 ± 0.0005. For the same molecule, the mass density in data set [3] was 799.51 ± 0.24 kg/m3.
On the same counts, the results for `CCCCCO` [pentan-1-ol] are 1.4089 ± 0.0005 and 810.88 ± 0.94 kg/m3.
For the molecule `CC(O)CO` (stereo not given) [1,2-propanediol] + CCO, the excess molar enthalpy in data set [1] (x1 = 0.0997) is 0.0215 ± 0.00141 kcal/mol; in data set [1] (x1 = 0.1948), 0.0343 ± 0.00182 kcal/mol; in data set [1] (x1 = 0.2875), 0.042 ± 0.00206 kcal/mol; in data set [1] (x1 = 0.381), 0.0453 ± 0.00215 kcal/mol; in data set [1] (x1 = 0.4756) it was 0.0451 ± 0.00215 kcal/mol; in data set [1] (x1 = 0.4952), 0.0474 ± 0.00222 kcal/mol. The excess molar enthalpy in data set [1] (x1 = 0.5972) is 0.0427 ± 0.00208 kcal/mol; in data set [1] (x1 = 0.6991) it was 0.0353 ± 0.00184 kcal/mol; in data set [1] (x1 = 0.8005), 0.0253 ± 0.00153 kcal/mol; in data set [1] (x1 = 0.9004), 0.0136 ± 0.00117 kcal/mol.
As to `CCO` [ethanol], the refractive index in data set [2] was determined as 1.3595 ± 0.0005. The mass density in data set [3] is recorded as 785.15 ± 0.25 kg/m3.
On the same counts, the results for `CCCCO` [butan-1-ol] are 1.3974 ± 0.0005 and 805.75 ± 0.23 kg/m3.
For `CC(O)CO` (stereo not given) [1,2-propanediol] + CCCCCO, the excess molar enthalpy is 0.0774 ± 0.00335 kcal/mol in data set [1] (x1 = 0.0914); 0.124 ± 0.00478 kcal/mol in data set [1] (x1 = 0.1843); 0.15 ± 0.00574 kcal/mol in data set [1] (x1 = 0.2821); 0.162 ± 0.00621 kcal/mol in data set [1] (x1 = 0.3755); 0.163 ± 0.00621 kcal/mol in data set [1] (x1 = 0.4761); 0.153 ± 0.00598 kcal/mol in data set [1] (x1 = 0.577). Also, the excess molar enthalpy in data set [1] (x1 = 0.6082) worked out at 0.146 ± 0.00574 kcal/mol; in data set [1] (x1 = 0.7027), 0.126 ± 0.00502 kcal/mol; in data set [1] (x1 = 0.802), 0.0963 ± 0.00382 kcal/mol; in data set [1] (x1 = 0.9014), 0.0549 ± 0.00239 kcal/mol.
For the molecule `CO` [methanol], the refractive index in data set [2] is on record as 1.327 ± 0.0005. Besides, in data set [3], the mass density is on record as 786.5 ± 0.51 kg/m3.
With `CC(O)CO` (stereo not given) [1,2-propanediol] + CO, the excess molar enthalpy is -0.00605 ± 0.000932 kcal/mol in data set [1] (x1 = 0.0787); -0.01 ± 0.00105 kcal/mol in data set [1] (x1 = 0.1565); -0.0127 ± 0.00112 kcal/mol in data set [1] (x1 = 0.2336); -0.0143 ± 0.0012 kcal/mol in data set [1] (x1 = 0.3099); -0.0151 ± 0.00122 kcal/mol in data set [1] (x1 = 0.3885); -0.014 ± 0.00117 kcal/mol in data set [1] (x1 = 0.3952). The excess molar enthalpy is -0.0136 ± 0.00117 kcal/mol in data set [1] (x1 = 0.4998); -0.0124 ± 0.00112 kcal/mol in data set [1] (x1 = 0.6004); -0.0102 ± 0.00105 kcal/mol in data set [1] (x1 = 0.7015); -0.00743 ± 0.00098 kcal/mol in data set [1] (x1 = 0.8026); -0.00392 ± 0.00086 kcal/mol in data set [1] (x1 = 0.9).
